Test results reported in ChEMBL document CHEMBL5291721, “A preclinical secondary pharmacology resource illuminates target-adverse drug reaction associations of marketed drugs” (Nat Commun, 2023).

How the values were obtained:
[1] = target: Gamma-aminobutyric acid receptor subunit alpha-1/alpha-2/beta-2/gamma-2 (Homo sapiens, UniProt P14867+P18507+P47869+P47870); type: functional, cell-based
[2] = target: T1, Peroxisome proliferator-activated receptor gamma (Homo sapiens, UniProt P37231); type: functional
T1 sequence (P37231 whole entry): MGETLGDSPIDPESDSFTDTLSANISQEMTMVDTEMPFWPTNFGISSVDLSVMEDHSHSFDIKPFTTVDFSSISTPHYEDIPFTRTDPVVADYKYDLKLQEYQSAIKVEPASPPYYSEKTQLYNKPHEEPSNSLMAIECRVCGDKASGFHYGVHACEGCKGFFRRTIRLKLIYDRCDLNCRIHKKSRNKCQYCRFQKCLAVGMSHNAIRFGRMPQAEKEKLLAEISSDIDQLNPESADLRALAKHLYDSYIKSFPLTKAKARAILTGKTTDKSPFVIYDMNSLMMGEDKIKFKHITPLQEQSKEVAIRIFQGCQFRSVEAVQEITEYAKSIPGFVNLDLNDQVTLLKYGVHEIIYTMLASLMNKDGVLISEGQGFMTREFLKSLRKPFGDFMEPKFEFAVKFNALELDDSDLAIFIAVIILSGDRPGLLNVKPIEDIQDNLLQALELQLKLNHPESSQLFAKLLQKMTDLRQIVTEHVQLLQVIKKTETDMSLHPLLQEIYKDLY

[3] = target: T1, Peroxisome proliferator-activated receptor gamma; type: functional; remark: listed apart in the source
Glucocorticoid receptor = target: T2, Glucocorticoid receptor (Homo sapiens, UniProt P04150); type: functional
T2 sequence (P04150 whole entry): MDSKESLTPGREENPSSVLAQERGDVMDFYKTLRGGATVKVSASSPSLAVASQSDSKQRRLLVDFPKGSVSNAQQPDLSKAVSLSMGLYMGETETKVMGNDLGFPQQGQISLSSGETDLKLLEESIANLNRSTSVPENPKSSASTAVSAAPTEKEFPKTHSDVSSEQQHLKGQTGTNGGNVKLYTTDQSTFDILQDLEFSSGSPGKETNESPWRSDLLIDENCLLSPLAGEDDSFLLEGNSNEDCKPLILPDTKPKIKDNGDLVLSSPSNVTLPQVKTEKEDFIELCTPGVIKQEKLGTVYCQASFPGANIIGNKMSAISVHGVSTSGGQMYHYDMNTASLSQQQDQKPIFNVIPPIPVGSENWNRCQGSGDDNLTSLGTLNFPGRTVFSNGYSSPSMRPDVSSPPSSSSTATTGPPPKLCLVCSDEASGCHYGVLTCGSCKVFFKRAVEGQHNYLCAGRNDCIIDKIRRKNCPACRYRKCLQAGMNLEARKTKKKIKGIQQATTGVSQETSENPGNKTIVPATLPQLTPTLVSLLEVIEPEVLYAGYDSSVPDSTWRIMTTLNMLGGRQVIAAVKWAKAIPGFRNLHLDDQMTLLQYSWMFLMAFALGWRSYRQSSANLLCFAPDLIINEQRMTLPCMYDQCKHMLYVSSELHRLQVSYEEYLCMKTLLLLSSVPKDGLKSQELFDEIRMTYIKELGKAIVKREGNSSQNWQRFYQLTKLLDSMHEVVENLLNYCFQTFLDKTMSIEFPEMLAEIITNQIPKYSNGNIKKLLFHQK

[4] = target: T3, Corticotropin-releasing factor receptor 1 (Homo sapiens, UniProt P34998)
T3 sequence (P34998 whole entry): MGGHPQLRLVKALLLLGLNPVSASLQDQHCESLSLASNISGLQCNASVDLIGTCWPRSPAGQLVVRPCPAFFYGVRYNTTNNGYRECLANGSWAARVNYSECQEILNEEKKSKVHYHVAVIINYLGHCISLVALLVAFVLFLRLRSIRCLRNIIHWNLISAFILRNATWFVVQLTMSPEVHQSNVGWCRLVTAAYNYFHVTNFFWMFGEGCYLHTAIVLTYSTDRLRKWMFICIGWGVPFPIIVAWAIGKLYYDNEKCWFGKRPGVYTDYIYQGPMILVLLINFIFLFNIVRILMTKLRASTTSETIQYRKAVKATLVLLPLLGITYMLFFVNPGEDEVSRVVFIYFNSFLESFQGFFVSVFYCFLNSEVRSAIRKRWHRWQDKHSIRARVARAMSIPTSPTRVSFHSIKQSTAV

[5] = target: T4, Endothelin receptor type B (Homo sapiens, UniProt P24530)
T4 sequence (P24530 whole entry): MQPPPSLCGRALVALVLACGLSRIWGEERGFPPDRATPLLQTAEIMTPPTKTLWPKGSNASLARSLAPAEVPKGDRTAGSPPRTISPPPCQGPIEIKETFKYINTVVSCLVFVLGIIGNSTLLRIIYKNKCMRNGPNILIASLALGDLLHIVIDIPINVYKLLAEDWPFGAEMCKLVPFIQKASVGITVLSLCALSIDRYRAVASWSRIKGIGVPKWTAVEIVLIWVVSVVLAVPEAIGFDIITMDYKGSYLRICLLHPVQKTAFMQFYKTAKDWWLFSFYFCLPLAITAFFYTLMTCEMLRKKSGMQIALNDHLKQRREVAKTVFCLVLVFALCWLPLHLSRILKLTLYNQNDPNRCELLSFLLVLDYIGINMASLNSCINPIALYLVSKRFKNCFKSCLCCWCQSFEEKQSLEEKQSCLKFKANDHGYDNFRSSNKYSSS

D(1A) dopamine receptor = D(1A) dopamine receptor (Homo sapiens, UniProt P21728)
Chain of D(1A) dopamine receptor (P21728 whole entry): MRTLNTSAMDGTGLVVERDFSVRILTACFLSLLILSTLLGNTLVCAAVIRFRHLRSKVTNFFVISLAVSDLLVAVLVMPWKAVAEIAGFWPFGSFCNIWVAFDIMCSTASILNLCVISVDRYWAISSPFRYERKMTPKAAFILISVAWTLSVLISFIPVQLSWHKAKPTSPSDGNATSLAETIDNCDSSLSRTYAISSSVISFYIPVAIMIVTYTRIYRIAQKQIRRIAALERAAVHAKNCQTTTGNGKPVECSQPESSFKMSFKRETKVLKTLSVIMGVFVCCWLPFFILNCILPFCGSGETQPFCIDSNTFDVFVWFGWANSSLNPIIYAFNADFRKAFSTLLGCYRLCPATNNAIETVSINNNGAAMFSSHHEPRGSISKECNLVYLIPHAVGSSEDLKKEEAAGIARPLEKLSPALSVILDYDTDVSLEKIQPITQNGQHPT

[6] = target: Synaptic vesicular amine transporter (Rattus norvegicus, UniProt Q01827); type: functional
Chain of Synaptic vesicular amine transporter (Q01827 whole entry): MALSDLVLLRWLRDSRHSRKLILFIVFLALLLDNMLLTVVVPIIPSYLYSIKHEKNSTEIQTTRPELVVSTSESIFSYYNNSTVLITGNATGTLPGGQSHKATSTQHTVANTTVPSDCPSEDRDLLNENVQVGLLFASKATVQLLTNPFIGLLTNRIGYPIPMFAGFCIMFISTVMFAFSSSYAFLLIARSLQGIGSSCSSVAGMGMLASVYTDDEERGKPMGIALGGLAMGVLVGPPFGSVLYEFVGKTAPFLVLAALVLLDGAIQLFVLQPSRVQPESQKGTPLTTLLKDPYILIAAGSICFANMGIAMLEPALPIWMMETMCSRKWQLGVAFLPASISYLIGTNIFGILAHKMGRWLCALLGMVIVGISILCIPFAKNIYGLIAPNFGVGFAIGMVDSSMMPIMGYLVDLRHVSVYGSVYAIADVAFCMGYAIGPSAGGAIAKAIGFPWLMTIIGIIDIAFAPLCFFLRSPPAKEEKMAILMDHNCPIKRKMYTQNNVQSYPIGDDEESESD
Also: assay procedure not described here.

Chain of Gamma-aminobutyric acid receptor subunit alpha-1/alpha-2/beta-2/gamma-2 (P14867 whole entry): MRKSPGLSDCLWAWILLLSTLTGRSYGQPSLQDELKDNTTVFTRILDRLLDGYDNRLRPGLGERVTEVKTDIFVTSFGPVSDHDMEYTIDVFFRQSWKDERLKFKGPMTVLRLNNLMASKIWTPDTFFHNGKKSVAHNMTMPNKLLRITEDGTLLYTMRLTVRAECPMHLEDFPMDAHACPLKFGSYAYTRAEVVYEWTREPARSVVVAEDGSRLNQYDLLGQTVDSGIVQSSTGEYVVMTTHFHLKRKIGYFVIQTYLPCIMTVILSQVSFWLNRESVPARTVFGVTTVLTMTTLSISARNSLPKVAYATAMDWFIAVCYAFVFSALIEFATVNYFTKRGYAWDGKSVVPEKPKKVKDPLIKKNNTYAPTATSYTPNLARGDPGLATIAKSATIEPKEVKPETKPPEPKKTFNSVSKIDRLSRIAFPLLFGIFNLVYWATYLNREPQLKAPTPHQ
Chain of Gamma-aminobutyric acid receptor subunit alpha-1/alpha-2/beta-2/gamma-2 (P47870 whole entry): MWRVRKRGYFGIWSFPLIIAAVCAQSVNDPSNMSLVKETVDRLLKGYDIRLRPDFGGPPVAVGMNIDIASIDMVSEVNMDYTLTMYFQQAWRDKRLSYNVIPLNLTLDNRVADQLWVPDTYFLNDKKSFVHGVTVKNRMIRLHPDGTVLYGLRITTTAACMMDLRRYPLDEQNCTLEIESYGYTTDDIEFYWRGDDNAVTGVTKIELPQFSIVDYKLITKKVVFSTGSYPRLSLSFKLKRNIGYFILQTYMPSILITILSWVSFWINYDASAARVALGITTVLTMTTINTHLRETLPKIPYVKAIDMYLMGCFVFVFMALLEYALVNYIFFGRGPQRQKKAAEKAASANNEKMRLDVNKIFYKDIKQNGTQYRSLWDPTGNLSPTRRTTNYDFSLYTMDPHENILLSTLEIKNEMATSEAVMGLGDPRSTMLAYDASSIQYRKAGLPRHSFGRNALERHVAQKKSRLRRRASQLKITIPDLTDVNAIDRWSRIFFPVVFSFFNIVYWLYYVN
Chain of Gamma-aminobutyric acid receptor subunit alpha-1/alpha-2/beta-2/gamma-2 (P18507 whole entry): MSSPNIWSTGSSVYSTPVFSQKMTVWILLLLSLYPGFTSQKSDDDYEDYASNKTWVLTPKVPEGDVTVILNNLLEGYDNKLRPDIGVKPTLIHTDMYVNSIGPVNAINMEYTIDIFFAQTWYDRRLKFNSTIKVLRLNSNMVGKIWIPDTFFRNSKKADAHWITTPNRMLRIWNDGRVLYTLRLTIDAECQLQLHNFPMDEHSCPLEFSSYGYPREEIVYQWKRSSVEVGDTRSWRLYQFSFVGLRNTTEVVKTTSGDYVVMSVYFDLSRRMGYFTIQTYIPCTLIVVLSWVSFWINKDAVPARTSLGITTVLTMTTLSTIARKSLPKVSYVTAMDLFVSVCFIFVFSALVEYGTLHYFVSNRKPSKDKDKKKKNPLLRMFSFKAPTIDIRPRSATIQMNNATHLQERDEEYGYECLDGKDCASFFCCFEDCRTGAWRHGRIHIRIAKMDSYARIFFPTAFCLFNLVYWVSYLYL
Chain of Gamma-aminobutyric acid receptor subunit alpha-1/alpha-2/beta-2/gamma-2 (P47869 whole entry): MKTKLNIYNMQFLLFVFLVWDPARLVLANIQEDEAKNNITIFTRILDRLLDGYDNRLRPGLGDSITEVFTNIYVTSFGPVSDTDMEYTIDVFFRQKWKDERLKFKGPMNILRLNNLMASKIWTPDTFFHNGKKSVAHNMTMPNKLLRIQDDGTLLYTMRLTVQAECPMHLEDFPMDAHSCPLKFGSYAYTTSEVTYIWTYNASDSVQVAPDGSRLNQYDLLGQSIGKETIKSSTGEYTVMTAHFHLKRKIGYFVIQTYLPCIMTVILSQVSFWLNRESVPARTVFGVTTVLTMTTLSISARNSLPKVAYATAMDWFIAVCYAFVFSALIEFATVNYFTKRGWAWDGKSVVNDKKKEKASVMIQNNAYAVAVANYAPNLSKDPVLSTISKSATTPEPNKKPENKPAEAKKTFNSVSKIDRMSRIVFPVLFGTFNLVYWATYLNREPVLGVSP

What does the source list for `CC(C)Cc1ccc(CC(=O)O)cc1` [IBUFENAC]?
AC50 [1]: > 30 µM; AC50 [2]: > 30 µM; AC50 [3]: > 30 µM; AC50 (Glucocorticoid receptor): > 30 µM

What does the source list for `CC(=O)c1ccc2c(c1)N(CCCN1CCN(CCO)CC1)c1ccccc1S2` [ACETOPHENAZINE]?
AC50 [1]: > 30 µM; AC50 [2]: > 30 µM; AC50 [3]: > 30 µM; AC50 (Glucocorticoid receptor): > 30 µM

How did the AC50 [4] turn out when `CC(N)Cc1ccccc1` (configuration not stated) [AMPHETAMINE] was run?
Its AC50 is > 30 µM.

And the AC50 [1]?
The AC50 was > 30 µM.

And the AC50 [2]?
Its AC50 is > 30 µM.

What about the AC50 [5] of the same compound?
Its AC50 is > 30 µM.

And the AC50 [3]?
The AC50 was > 30 µM.

And the AC50 (Glucocorticoid receptor)?
The AC50 was > 30 µM.

`CCC[C@@H]1C[C@@H](C(=O)N[C@@H]([C@H]2O[C@H](SC)[C@H](O)[C@@H](O)[C@H]2O)[C@H](C)Cl)N(C)C1` [CLINDAMYCIN] was tested. Which AC50 [4] did it give?
The AC50 was > 30 µM.

What about the AC50 (D(1A) dopamine receptor) of the same compound?
Its AC50 is > 10 µM.

What about the AC50 [6] of the same compound?
The AC50 was > 30 µM.

And the AC50 [5]?
The AC50 was > 30 µM.

How did the AC50 [2] turn out when `CC[C@H](C)C(=O)O[C@H]1C[C@H](O)C=C2C=C[C@H](C)[C@H](CC[C@@H](O)C[C@@H](O)CC(=O)O)[C@H]21` [PRAVASTATIN] was run?
The AC50 was > 30 µM.

And the AC50 [3]?
Its AC50 is > 30 µM.

What about the AC50 (Glucocorticoid receptor) of the same compound?
The AC50 was > 30 µM.

Which AC50 [2] does the source give for `CC(C)NNC(=O)c1ccncc1` [IPRONIAZID] here?
The AC50 was > 30 µM.

And the AC50 [3]?
Its AC50 is > 30 µM.

And the AC50 (Glucocorticoid receptor)?
Its AC50 is > 30 µM.

With `CO/N=C(\C(=O)N[C@@H]1C(=O)N2C(C(=O)[O-])=C(C[N+]3(C)CCCC3)CS[C@H]12)c1csc(N)n1` as the compound, how does the AC50 [1] read?
Its AC50 is > 2400 µM.

And the AC50 [2]?
The AC50 was 200 µM.

And the AC50 [3]?
Its AC50 is > 300 µM.

What about the AC50 (Glucocorticoid receptor) of the same compound?
The AC50 was > 300 µM.

How did the AC50 [6] turn out when `CC(C)OC(=O)[C@H](C)N[P@](=O)(OC[C@H]1O[C@@H](n2ccc(=O)[nH]c2=O)[C@](C)(F)[C@@H]1O)Oc1ccccc1` [SOFOSBUVIR] was run?
Its AC50 is > 30 µM.

With `CN1CCCC(n2nc(Cc3ccc(Cl)cc3)c3ccccc3c2=O)CC1` (configuration not stated) [AZELASTINE] as the compound, how does the AC50 [1] read?
The AC50 was 19 µM.

And the AC50 [2]?
Its AC50 is > 30 µM.

What about the AC50 [3] of the same compound?
The AC50 was > 30 µM.

What about the AC50 (Glucocorticoid receptor) of the same compound?
Its AC50 is > 30 µM.

Which results are given for `CN(CCOc1ccc(NS(C)(=O)=O)cc1)CCc1ccc(NS(C)(=O)=O)cc1` [DOFETILIDE]?
AC50 [4]: > 30 µM; AC50 (D(1A) dopamine receptor): > 10 µM; AC50 [6]: 1.7 µM; AC50 [5]: > 30 µM

For `O=C(COc1ccc(Cl)cc1)N1CCN(Cc2ccc3c(c2)OCO3)CC1` [FIPEXIDE], which AC50 [6] is on record?
The AC50 was 0.15 µM.

Which AC50 [4] does the source give for `C#C[C@]1(O)CC[C@H]2[C@@H]3CCc4cc(O)ccc4[C@H]3CC[C@@]21C` [ETHINYL ESTRADIOL] here?
Its AC50 is > 30 µM.

And the AC50 (D(1A) dopamine receptor)?
Its AC50 is > 10 µM.

And the AC50 [5]?
The AC50 was > 30 µM.

What about the AC50 (Glucocorticoid receptor) of the same compound?
The AC50 was > 30 µM.

With `COc1ccc2c(c1)C(=O)N(CCc1ccc(S(=O)(=O)NC(=O)NC3CCCCC3)cc1)C(=O)C2(C)C` [GLIQUIDONE] as the compound, how does the AC50 (Glucocorticoid receptor) read?
Its AC50 is > 30 µM.

For `OCc1cc([C@@H](O)CNCCCCCCOCCOCc2c(Cl)cccc2Cl)ccc1O` [VILANTEROL], which AC50 [1] is on record?
Its AC50 is > 30 µM.

And the AC50 [2]?
Its AC50 is > 30 µM.

And the AC50 [3]?
Its AC50 is > 30 µM.

And the AC50 (Glucocorticoid receptor)?
Its AC50 is > 30 µM.

With `Cc1ccc(C(=O)c2cc(O)c(O)c([N+](=O)[O-])c2)cc1` [TOLCAPONE] as the compound, how does the AC50 (Glucocorticoid receptor) read?
Its AC50 is 14 µM.

How did the AC50 [1] turn out when `O=C(NC[C@H]1CN(c2ccc(N3CCOCC3=O)cc2)C(=O)O1)c1ccc(Cl)s1` [RIVAROXABAN] was run?
The AC50 was > 30 µM.

What about the AC50 (Glucocorticoid receptor) of the same compound?
The AC50 was > 30 µM.

For `CC(O)CO` (configuration not stated) [PROPYLENE GLYCOL], which AC50 [6] is on record?
Its AC50 is > 30 µM.

`CCOC(=O)N[C@@H]1CC[C@@H]2[C@@H](C1)C[C@H]1C(=O)O[C@H](C)[C@H]1[C@H]2/C=C/c1ccc(-c2cccc(F)c2)cn1` [VORAPAXAR] was tested. Which AC50 [6] did it give?
The AC50 was 1.3 µM.
